Test results from patent US12428428B2, “Tricyclic tetrahydroisoquinoline derivative, preparation method therefor and application thereof in medicine” (JIANGSU HENGRUI MEDICINE CO., LTD., priority 2020, dated 2025).

Assays:
[1] = tested on: ERα Y537S mutant-expressing MCF7 cells; test: Inhibition of proliferation of ERα mutant-expressing MCF7 cells; type: cell-based; conditions: Homo sapiens, 144 h
Text: The mutant estrogen receptor α (ERα) Y537S of human ERα protein was obtained by site-directed mutagenesis in a two-primer PCR manner using the cDNA of wild-type ESR1 gene (Accession No. NM000125) as a template. The sequences of the primers used in the mutation are as follows (the underlined nucleotides are the sites of mutation): Y537S: F-AAGAACGTGGTGCCCCTCTCTGACCTGCTGCTGGAGATG (SEQ ID NO: 1); R-CATCTCCAGCAGCAGGTCAGAGAGGGGCACCACGTTCTT (SEQ ID NO: 2). The cDNA of the mutant ESR1 was cloned into the lentiviral vector of interest pCDH-CMV-MCS-EF1-Puro. The lentiviral plasmid bearing the mutant ESR1 gene sequence and the lentiviral packaging plasmid were then transfected into HEK-293T cells (ATCC, CRL-3216) by using Lipofectamine 3000 Transfection Reagent (ThermoFisher Scientific, Cat #L3000075). Forty-eight hours after transfection, the virus-bearing medium supernatant was filtered and ultracentrifuged to obtain a virus precipitate, which was then resuspended in an appropriate amount of medium. The suspension was added to MCF7 cells (ATCC, HTB-22), followed by the addition of polybrene at a final concentration of 8 μg/mL. The mixture was incubated overnight. Two days after transfection, 1 μg/mL puromycin was added to the cell culture liquid for resistance screening. About two weeks later, an MCF7 cell line capable of stably expressing the ERαY537S mutant was obtained.
The ERα mutant-expressing MCF7 cells were cultured in an MEM (GE Healthcare, SH30024.01) complete medium containing 10% fetal bovine serum. On the first day of the experiment, the cells were seeded into a 96-well plate with complete medium at a density of 3,000 cells/well to form 100 μL of cell suspension per well. The plate was incubated overnight in a cell incubator at 37° C. with 5% CO2. The following day the medium was removed, and 135 μL of an MEM incomplete medium containing 2% fetal bovine serum, and 15 μL of a test compound prepared at different concentrations with the incomplete medium were added to each well. The final concentrations of the compound were 9 concentration points obtained by 4-fold serial dilution from 100 nM. A blank control containing 0.5% DMSO was set. The plate was incubated in a cell incubator at 37° C. with 5% CO2 for 144 h. On day 8, the 96-well cell culture plate was taken out. 150 μL of CellTiter-Glo® Luminescent Cell Viability Assay (Promega, G7573) was added to each well. The plate was let stand at room temperature for 10 min, and the luminescence signal values was read using a multilabel microplate reader (PerkinElmer, VICTOR 3). The IC50 values for the inhibitory activity of the compounds were calculated according to the compound concentrations and the luminescence signal values and are shown in Table 3.

CYP3A4 = CYP3A4 (Homo sapiens (Human), UniProt P08684); test: Time-dependent inhibition of site of metabolism of testosterone in human liver microsome CYP3A4; type: in vitro ADME; conditions: testosterone substrate; for IC50 shift at 30 min: human, human liver microsomes, probe testosterone (75 µM)
CYP3A4, sequence (P08684 whole entry): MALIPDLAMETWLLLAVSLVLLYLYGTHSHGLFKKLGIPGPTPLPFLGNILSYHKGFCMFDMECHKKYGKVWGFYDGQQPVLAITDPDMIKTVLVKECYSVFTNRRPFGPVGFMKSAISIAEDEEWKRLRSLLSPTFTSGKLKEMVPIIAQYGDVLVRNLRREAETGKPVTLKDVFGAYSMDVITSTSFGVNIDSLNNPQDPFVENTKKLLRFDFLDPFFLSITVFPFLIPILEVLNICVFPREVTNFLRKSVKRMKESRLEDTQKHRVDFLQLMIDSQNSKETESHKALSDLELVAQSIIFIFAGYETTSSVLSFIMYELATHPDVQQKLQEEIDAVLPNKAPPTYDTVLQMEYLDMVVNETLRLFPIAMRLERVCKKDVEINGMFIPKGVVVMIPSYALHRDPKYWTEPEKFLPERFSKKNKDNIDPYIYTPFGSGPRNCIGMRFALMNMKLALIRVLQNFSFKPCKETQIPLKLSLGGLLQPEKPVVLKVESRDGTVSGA
Procedure: • 1. Phosphate buffer (20×PBS, purchased from Sangon); • 2. NADPH (ACROS, A2646-71-1); • 3. Human liver microsome (Corning Gentest, Cat No, 452161, Lot No. 905002, Donor36); • 4. ABI QTrap 4000 LC-MS System (AB Sciex); • 5. ZORBAX Extend-C18, 3×50 mm, 3.5 μm (Agilent, USA); • 6. CYP probe substrate (testosterone, Vocko, CAS No. [58-22-0]/75 μM) and positive control inhibitor (verapamil, Adamas Reagent Co Ltd, Cat No. 25904A).
A 100 mM PBS buffer was prepared. A 0.25 mg/mL microsome solution, a 7.5 mM MgCl2 and a 5 mM NADPH solution were prepared using the buffer. A 30 mM stock solution was diluted with DMSO to obtain 30 mM, 10 mM, 3 mM, 1 mM, 0.3 mM, 0.1 mM, 0.03 mM and 0 mM serial solutions I, which were further diluted 200-fold with phosphate buffer (PBS) to obtain serial test solutions II (150, 50, 15, 5, 1.5, 0.5, 0.15 and 0 μM). A midazolam working solution was diluted with PBS to 15 μM.
The serial test solutions prepared above were well mixed by shaking and aliquoted in 20 μL portions into corresponding reaction plates (+NADPH, T0 and −NADPH groups were set). Three parallel tests were set. 40 μL of the liver microsome working solution was added to each 96-well plate. 20 μL of a corresponding substrate solution was added to the T0 plate. 20 μL of NADPH was added to the TO plate and +NADPH group. A timer was started, and the plates were incubated in a water bath at 37° C. After 30 min of incubation, the TO plate was taken out, and the reaction was terminated with 250 μL of an internal standard-containing ACN solution. The +NADPH group was supplemented with 20 μL of the corresponding substrate solution, and the −NADPH group was supplemented with 20 μL of the corresponding substrate solution and […]. A timer was started, and the plates were incubated in a water bath at 37° C. After 30 min of incubation, the plates were taken out, and the reactions were terminated with 250 μL of an internal standard-containing ACN solution. Then the plates were shaken on a shaker at 800 rpm for 10 min and centrifuged at 4000 rpm for 15 min. 100 μL of the supernatant and 80 μL of ultrapure water were well mixed and subjected to LC-MS/MS analysis.
The IC50 values of the drugs for the site of metabolism of testosterone in CYP3A4 were calculated using Graphpad Prism and are shown in Table 8.

[2] = 30 min pre-incubation with NADPH

IC50 [1] | SMILES | further results
1.38 nM | C[C@@H]1Cc2cc3c(cc2[C@@H](c2ccc(N[C@H]4CCN(CCCF)C4)cc2)N1CC(F)(F)F)OCO3 [Example 1, (S)-1-(3-fluoropropyl)-N-(4-((5R,7R)-7-methyl-6-(2,2,2-trifluoroethyl)-5,6,7,8-tetrahydro-[1,3]dioxolo[4,5-g]isoquinolin-5-yl)phenyl)pyrrolidin-3-amine] | 
0.78 nM | C[C@@H]1Cc2cc3c(cc2[C@@H](c2c(F)cc(N[C@H]4CCN(CCCF)C4)cc2F)N1CC(F)(F)F)OCO3 [Example 2, (S)—N-(3,5-difluoro-4-((5S,7R)-7-methyl-6-(2,2,2-trifluoroethyl)-5,6,7,8-tetrahydro-[1,3]dioxolo[4,5-g]isoquinolin-5-yl)phenyl)-1-(3-fluoropropyl)pyrrolidin-3-amine] | 
0.43 nM | C[C@@H]1Cc2cc3c(cc2[C@@H](c2ccc(N[C@H]4CCN(CCCF)C4)cc2)N1CC(F)(F)CO)OCO3 [Example 3, 2,2-Difluoro-3-((5R,7R)-5-(4-(((S)-1-(3-fluoropropyl)pyrrolidin-3-yl)amino)phenyl)-7-methyl-7,8-dihydro-[1,3]dioxolo[4,5-g]isoquinolin-6(5H)-yl)propan-1-ol] | 
0.89 nM | C[C@@H]1Cc2cc3c(cc2[C@@H](c2ccc(N[C@H]4CCN(CCCF)C4)cn2)N1CC(F)(F)CO)OCO3 [Example 4, 2,2-Difluoro-3-((5S,7R)-5-(5-(((S)-1-(3-fluoropropyl)pyrrolidin-3-yl)amino)pyridin-2-yl)-7-methyl-7,8-dihydro-[1,3]dioxolo[4,5-g]isoquinolin-6(5H)-yl)propan-1-ol] | IC50 shift at 30 min (CYP3A4): 1; IC50 (CYP3A4; [2]): 2400 nM; IC50 (CYP3A4; pre-incubation without NADPH): 2500 nM
0.07 nM | C[C@@H]1Cc2cc3c(cc2[C@@H](c2c(F)cc(N[C@H]4CCN(CCCF)C4)cc2F)N1CC(F)(F)CO)OCO3 [Example 5, 3-((5S,7R)-5-(2,6-difluoro-4-(((S)-1-(3-fluoropropyl)pyrrolidin-3-yl)amino)phenyl)-7-methyl-7,8-dihydro-[1,3]dioxolo[4,5-g]isoquinolin-6(5H)-yl)-2,2-difluoro-1-propanol] | 
0.82 nM | C[C@@H]1Cc2cc3c(cc2[C@@H](c2ccc(N[C@H]4CCN(CCCF)C4)cn2)N1CC(F)(F)F)OCO3 [Example 6, N—((S)-1-(3-fluoropropyl)pyrrolidin-3-yl)-6-((5S,7R)-7-methyl-6-(2,2,2-trifluoroethyl)-5,6,7,8-tetrahydro-[1,3]dioxolo[4,5-g]isoquinolin-5-yl)pyridin-3-amine] | 
1.35 nM | C[C@@H]1Cc2cc3c(cc2[C@@H](c2ncc(N[C@H]4CCN(CCCF)C4)cc2F)N1CC(F)(F)F)OCO3 [Example 9, 5-Fluoro-N—((S)-1-(3-fluoropropyl)pyrrolidin-3-yl)-6-((5S,7R)-7-methyl-6-(2,2,2-trifluoroethyl)-5,6,7,8-tetrahydro-[1,3]dioxolo[4,5-g]isoquinolin-5-yl)pyridin-3-amine] | 
0.71 nM | C[C@@H]1Cc2cc3c(cc2[C@@H](c2ncc(N[C@H]4CCN(CCCF)C4)cc2F)N1CC(F)(F)CO)OCO3 [Example 11, 2,2-Difluoro-3-((5S,7R)-5-(3-fluoro-5-(((S)-1-(3-fluoropropyl)pyrrolidin-3-yl)amino)pyridin-2-yl)-7-methyl-7,8-dihydro-[1,3]dioxolo[4,5-g]isoquinolin-6(5H)-yl)propan-1-ol] | 
3.49 nM | [2H]C1([2H])Oc2cc3c(cc2O1)[C@@H](c1ccc(N[C@H]2CCN(CCCF)C2)cn1)N(CC(F)(F)CO)[C@H](C)C3 [Example 12, 2,2-Difluoro-3-((5S,7R)-5-(5-(((S)-1-(3-fluoropropyl)pyrrolidin-3-yl)amino)pyridin-2-yl)-7-methyl-7,8-dihydro-[1,3]dioxolo[4,5-g]isoquinolin-6(5H)-yl-2,2-d2)propan-1-ol] | IC50 shift at 30 min (CYP3A4): 0.5; IC50 (CYP3A4; [2]): 11600 nM; IC50 (CYP3A4; pre-incubation without NADPH): 25200 nM
1.27 nM | C[C@@H]1Cc2cc3c(cc2[C@@H](c2ccc(NC4CN(CCCF)C4)cn2)N1CC(F)(F)CO)OCO3 [Example 14, 2,2-Difluoro-3-((5S,7R)-5-(5-((1-(3-fluoropropyl)azetidin-3-yl)amino)pyridin-2-yl)-7-methyl-7,8-dihydro-[1,3]dioxolo[4,5-g]isoquinolin-6(5H)-yl)propan-1-ol] | 
0.68 nM | C[C@@H]1Cc2cc3c(cc2[C@@H](c2c(F)cc(O[C@H]4CCN(CCCF)C4)cc2F)N1CC(F)(F)F)OCO3 [Example 15, (5S,7R)-5-(2,6-difluoro-4-(((S)-1-(3-fluoropropyl)pyrrolidin-3-yl)oxy)phenyl)-7-methyl-6-(2,2,2-trifluoroethyl)-5,6,7,8-tetrahydro-[1,3]dioxolo[4,5-g]isoquinoline] | 
2.19 nM | C[C@@H]1Cc2cc3c(cc2[C@@H](c2ccc(NC4CN(CCCF)C4)cn2)N1CC(F)(F)F)OCO3 [Example 17, N-(1-(3-fluoropropyl)azetidin-3-yl)-6-((5S,7R)-7-methyl-6-(2,2,2-trifluoroethyl)-5,6,7,8-tetrahydro-[1,3]dioxolo[4,5-g]isoquinolin-5-yl)pyridin-3-amine] | 
0.25 nM | C[C@@H]1Cc2cc3c(cc2[C@@H](c2ccc(NC4CN(CCCF)C4)cc2)N1CC(F)(F)CO)OCO3 [Example 18, 2,2-Difluoro-3-((5R,7R)-5-(4-((1-(3-fluoropropyl)azetidin-3-yl)amino)phenyl)-7-methyl-7,8-dihydro-[1,3]dioxolo[4,5-g]isoquinolin-6(5H)-yl)propan-1-ol] | 
0.43 nM | [2H]C1([2H])Oc2cc3c(cc2O1)[C@@H](c1ccc(N[C@H]2CCN(CCCF)C2)cc1)N(CC(F)(F)CO)[C@H](C)C3 [Example 19, 2,2-Difluoro-3-((5R,7R)-5-(4-(((S)-1-(3-fluoropropyl)pyrrolidin-3-yl)amino)phenyl)-7-methyl-7,8-dihydro-[1,3]dioxolo[4,5-g]isoquinolin-6(5H)-yl-2,2-d2)propan-1-ol] | 

SMILES | IC50 [1] | further results
[2H]C1([2H])Oc2cc3c(cc2O1)[C@@H](c1ccc(NC2CN(CCCF)C2)cn1)N(CC(F)(F)CO)[C@H](C)C3 [Example 13, 2,2-Difluoro-3-((5S,7R)-5-(5-((1-(3-fluoropropyl)azetidin-3-yl)amino)pyridin-2-yl)-7-methyl-7,8-dihydro-[1,3]dioxolo[4,5-g]isoquinolin-6(5H)-yl-2,2-d2)propan-1-ol] | 1.36 nM | IC50 Shift (CYP3A4): No TDI
